# In US9255295B2, “Method for evaluating the sensitizing potential of a test compound” (IMMUNOSEARCH, priority 2010, dated 2016):
# Where two headings read alike, the source gives them in different places.
# Tests used:
# [1] = system: ARE gene family (AKR1B10, AKR1C1, AKR1C2, CYP1B1, FTH1P, FTL, G6PD, GCLM, NQO2, SLC7A11, TXNRD1, UGT1A1, UGT1A9, YWHAZ, CD36, CYP1A1, GCLC, HMOX1, NQO1, PSME2 …); conditions: for AHR expression / AKR1B10 expression / AKR1C1 expression / AKR1C2 expression / CYP1A1 expression / CYP1B1 expression / FTH1P expression / FTL expression / GCLC expression / GCLM expression / HMOX1 expression / NQO1 expression / NQO2 expression / SLC7A11 expression / TXNRD1 expression / UGT1A1 expression / UGT1A9 expression: compared to the control
# [2] = system: EPISKIN model; assay: Sensitizing power: sensitizing potential retested at successive dilutions in the EPISKIN model
# Source text: “Sensitizing power” means the ability of a given compound to induce a sensitization reaction according to the concentration of said compound. Sensitizing power is dependent on the quantity of substance necessary to induce sensitization. Thus, the lower the sensitizing quantity necessary to induce a sensitizing response, the stronger the sensitizer is, and vice versa, the higher the sensitizing quantity necessary to induce a sensitizing response, the weaker the sensitizer is.
# Thus, steps 1) and 2) will be done for each of the dilutions.
structure (smiles),measurement,setting,value
CC=Cc1ccc(O)c(OC)c1 [Isoeugenol],AKR1C1 NUMBER OF GENES grade,[1]; 10%,"0 (if this expression is lower, the grade is 0)"
same,AKR1C2 NUMBER OF GENES grade,[1]; 10%,"0 (if this expression is lower, the grade is 0)"
same,ARE >1.3 (number of genes),[1]; 10%,5
same,CD36 expression compared to control,[1]; 10%,0.6
same,CD36 grade (NUMBER OF GENES),[1]; 10%,"0 (if this expression is lower, the grade is 0)"
same,CYP1A1 NUMBER OF GENES grade,[1]; 10%,"1 (If the expression is greater than 1.3 compared to the control, a grade of 11s given)"
same,CYP1B1 NUMBER OF GENES grade,[1]; 10%,"1 (If the expression is greater than 1.3 compared to the control, a grade of 11s given)"
same,FTH1P NUMBER OF GENES grade,[1]; 10%,"0 (if this expression is lower, the grade is 0)"
same,FTL NUMBER OF GENES grade,[1]; 10%,"0 (if this expression is lower, the grade is 0)"
same,GCLC NUMBER OF GENES grade,[1]; 10%,"0 (if this expression is lower, the grade is 0)"
same,GCLM NUMBER OF GENES grade,[1]; 10%,"1 (If the expression is greater than 1.3 compared to the control, a grade of 11s given)"
same,HMOX1 NUMBER OF GENES grade,[1]; 10%,"0 (if this expression is lower, the grade is 0)"
same,NQO1 NUMBER OF GENES grade,[1]; 10%,"0 (if this expression is lower, the grade is 0)"
same,NQO2 NUMBER OF GENES grade,[1]; 10%,"0 (if this expression is lower, the grade is 0)"
same,S100A8 expression compared to control,[1]; 10%,1.3
same,S100A8 grade (NUMBER OF GENES),[1]; 10%,"1 (If the expression is greater than 1.3 compared to the control, a grade of 11s given)"
same,SLC7A11 NUMBER OF GENES grade,[1]; 10%,"0 (if this expression is lower, the grade is 0)"
same,TOTAL ARE (number of genes),[1]; 10%,5
same,TXNRD1 NUMBER OF GENES grade,[1]; 10%,"1 (If the expression is greater than 1.3 compared to the control, a grade of 11s given)"
same,UGT1A1 NUMBER OF GENES grade,[1]; 10%,"0 (if this expression is lower, the grade is 0)"
same,UGT1A9 NUMBER OF GENES grade,[1]; 10%,"1 (If the expression is greater than 1.3 compared to the control, a grade of 11s given)"
same,AHR expression,[1]; 10%,0.9
same,AKR1B10 expression,[1]; 10%,0.5
same,AKR1C1 expression,[1]; 10%,1.1
same,AKR1C2 expression,[1]; 10%,0.7
same,CYP1A1 expression,[1]; 10%,510.5
same,CYP1B1 expression,[1]; 10%,39.8
same,FTH1P expression,[1]; 10%,0.9
same,FTL expression,[1]; 10%,0.9
same,GCLC expression,[1]; 10%,0.8
same,GCLM expression,[1]; 10%,1.5
same,HMOX1 expression,[1]; 10%,1.2
same,NQO1 expression,[1]; 10%,1.0
same,NQO2 expression,[1]; 10%,0.9
same,SLC7A11 expression,[1]; 10%,1.1
same,TXNRD1 expression,[1]; 10%,1.5
same,UGT1A1 expression,[1]; 10%,1.2
same,UGT1A9 expression,[1]; 10%,1.6
same,AHR NUMBER OF GENES grade,[1]; 50%,"0 (if this expression is lower, the grade is 0)"
same,AKR1B10 NUMBER OF GENES grade,[1]; 50%,"0 (if this expression is lower, the grade is 0)"
same,AKR1C1 NUMBER OF GENES grade,[1]; 50%,"1 (If the expression is greater than 1.3 compared to the control, a grade of 11s given)"
same,AKR1C2 NUMBER OF GENES grade,[1]; 50%,"1 (If the expression is greater than 1.3 compared to the control, a grade of 11s given)"
same,ARE >1.3 (number of genes),[1]; 50%,11
same,CD36 expression compared to control,[1]; 50%,0.6
same,CD36 grade (NUMBER OF GENES),[1]; 50%,"0 (if this expression is lower, the grade is 0)"
same,CYP1A1 NUMBER OF GENES grade,[1]; 50%,"1 (If the expression is greater than 1.3 compared to the control, a grade of 11s given)"
same,CYP1B1 NUMBER OF GENES grade,[1]; 50%,"1 (If the expression is greater than 1.3 compared to the control, a grade of 11s given)"
same,FTH1P NUMBER OF GENES grade,[1]; 50%,"0 (if this expression is lower, the grade is 0)"
same,FTL NUMBER OF GENES grade,[1]; 50%,"1 (If the expression is greater than 1.3 compared to the control, a grade of 11s given)"
same,GCLC NUMBER OF GENES grade,[1]; 50%,"1 (If the expression is greater than 1.3 compared to the control, a grade of 11s given)"
same,GCLM NUMBER OF GENES grade,[1]; 50%,"1 (If the expression is greater than 1.3 compared to the control, a grade of 11s given)"
same,HMOX1 NUMBER OF GENES grade,[1]; 50%,"1 (If the expression is greater than 1.3 compared to the control, a grade of 11s given)"
same,NQO1 NUMBER OF GENES grade,[1]; 50%,"1 (If the expression is greater than 1.3 compared to the control, a grade of 11s given)"
same,NQO2 NUMBER OF GENES grade,[1]; 50%,"0 (if this expression is lower, the grade is 0)"
same,S100A8 expression compared to control,[1]; 50%,1.5
same,S100A8 grade (NUMBER OF GENES),[1]; 50%,"1 (If the expression is greater than 1.3 compared to the control, a grade of 11s given)"
same,SLC7A11 NUMBER OF GENES grade,[1]; 50%,"1 (If the expression is greater than 1.3 compared to the control, a grade of 11s given)"
same,TOTAL ARE (number of genes),[1]; 50%,11
same,TXNRD1 NUMBER OF GENES grade,[1]; 50%,"1 (If the expression is greater than 1.3 compared to the control, a grade of 11s given)"
same,UGT1A1 NUMBER OF GENES grade,[1]; 50%,"0 (if this expression is lower, the grade is 0)"
same,UGT1A9 NUMBER OF GENES grade,[1]; 50%,"0 (if this expression is lower, the grade is 0)"
same,AHR expression,[1]; 50%,1.0
same,AKR1B10 expression,[1]; 50%,1.0
same,AKR1C1 expression,[1]; 50%,2.2
same,AKR1C2 expression,[1]; 50%,1.3
same,CYP1A1 expression,[1]; 50%,87.1
same,CYP1B1 expression,[1]; 50%,39.1
same,FTH1P expression,[1]; 50%,1.0
same,FTL expression,[1]; 50%,1.5
same,GCLC expression,[1]; 50%,1.3
same,GCLM expression,[1]; 50%,2.0
same,HMOX1 expression,[1]; 50%,1.4
same,NQO1 expression,[1]; 50%,1.8
same,NQO2 expression,[1]; 50%,1.1
same,SLC7A11 expression,[1]; 50%,2.2
same,TXNRD1 expression,[1]; 50%,2.6
same,UGT1A1 expression,[1]; 50%,1.2
same,UGT1A9 expression,[1]; 50%,1.2
same,sensitizing potential (conclusion),[2]; 0.1%,Sensitizing
same,sensitizing potential (conclusion),[2]; 1%,Sensitizing
same,sensitizing potential (conclusion),[2]; 10%,Sensitizing
same,sensitizing potential (conclusion),[2]; 50%,Sensitizing
same,sensitizing power (class),[2]; from successive dilutions,MODERATE
